Laboratory results taken from ChEMBL document CHEMBL4831545, “Hormesis Effect of Berberine against Klebsiella pneumoniae Is Mediated by Up-Regulation of the Efflux Pump KmrA” (J Nat Prod, 2021).
Active and inactive are the calls of the source. No cut-off for these calls is given here.

Key:
Klebsiella pneumoniae [1] = test: Hormesis activity against Klebsiella pneumoniae assessed as increase in antibiotic MIC by measuring chloramphenicol MIC at 3 ug/ml incubated for 12 hrs by OD600 based analysis (reference value: 6.25 ug/ml); assay type: ADME, organism-based; conditions: in vivo, dose 3 µg/ml
Acinetobacter baumannii [2] = test: Hormesis activity against Acinetobacter baumannii assessed as increase in antibiotic MIC by measuring rifampicin MIC at 3 ug/ml incubated for 12 hrs by OD600 based analysis (reference value: 1.5625 ug/ml); assay type: ADME, organism-based; conditions: in vivo, dose 3 µg/ml
Klebsiella pneumoniae [3] = test: Hormesis activity against Klebsiella pneumoniae assessed as promotion of bacterial growth at 3 to 6 ug/ml measured for 24 hrs in presence of efflux pump inhibitor, CCCP and 1 to 2 ug/ml tetracycline by OD600 based analysis; assay type: ADME, organism-based; conditions: in vivo, dose 3-6 µg/ml
Klebsiella pneumoniae [4] = test: Hormesis activity against Klebsiella pneumonia assessed as promotion of bacterial growth by measuring prolonged logarithmic growth phase at 3 to 6 ug/ml measured from 840 to 1440 mins by OD600 based analysis; assay type: organism-based; conditions: in vivo, dose lower 3 µg/ml, time lower 840 min, dose upper 6 µg/ml, time upper 1440 min
Acinetobacter baumannii [5] = test: Hormesis activity against Acinetobacter baumannii assessed as increase in antibiotic MIC by measuring chloramphenicol MIC at 3 ug/ml incubated for 12 hrs by OD600 based analysis (reference value: 6.25 ug/ml); assay type: ADME, organism-based; conditions: in vivo, dose 3 µg/ml
Klebsiella pneumoniae [6] = test: Hormesis activity against overnight compound-treated Klebsiella pneumoniae deficient in KmrA gene expression assessed as increase in antibiotic MIC by measuring ampicillin MIC at 3 ug/ml incubated for 12 hrs by OD600 based analysis (reference value: 12.5 ug/ml); assay type: ADME, organism-based; conditions: in vivo, dose 3 µg/ml
Acinetobacter baumannii [7] = test: Hormesis activity against overnight-compound treated Acinetobacter baumannii assessed as increase in antibiotic MIC by measuring meropenem MIC at 3 ug/ml incubated for 12 hrs by OD600 based analysis (reference value: 0.625 ug/ml); assay type: ADME, organism-based; conditions: in vivo, dose 3 µg/ml
Acinetobacter baumannii [8] = test: Hormesis activity against Acinetobacter baumannii assessed as increase in antibiotic MIC by measuring azithromycin MIC at 3 ug/ml incubated for 12 hrs by OD600 based analysis (reference value: 200 ug/ml); assay type: ADME, organism-based; conditions: in vivo, dose 3 µg/ml
Enterobacter cloacae [9] = test: Hormesis activity against Enterobacter cloacae assessed as increase in antibiotic MIC by measuring rifampicin MIC at 3 ug/ml incubated for 12 hrs by OD600 based analysis (reference value: 25 ug/ml); assay type: ADME, organism-based; conditions: in vivo, dose 3 µg/ml
Klebsiella pneumoniae [10] = test: Hormesis activity against Klebsiella pneumoniae assessed as increase in antibiotic MIC by measuring tetracycline MIC at 3 ug/ml incubated for 12 hrs by OD600 based analysis (reference value: 6 ug/ml); assay type: ADME, organism-based; conditions: in vivo, dose 3 µg/ml
Klebsiella pneumoniae [11] = test: Hormesis activity against Klebsiella pneumoniae deficient in KmrA gene expression assessed as increase in antibiotic MIC by measuring cefotaxime MIC at 3 ug/ml incubated for 12 hrs by OD600 based analysis (reference value: 0.39625 ug/ml); assay type: ADME, organism-based; conditions: in vivo, dose 3 µg/ml
Acinetobacter baumannii [12] = test: Hormesis activity against Acinetobacter baumannii assessed as increase in antibiotic MIC by measuring hygromycinMIC at 3 ug/ml incubated for 12 hrs by OD600 based analysis (reference value: 125 ug/ml); assay type: ADME, organism-based; conditions: in vivo, dose 3 µg/ml
Klebsiella pneumoniae [13] = test: Hormesis activity against overnight compound-treated Klebsiella pneumoniae assessed as increase in antibiotic MIC by measuring meropenem MIC at 3 ug/ml incubated for 12 hrs by OD600 based analysis (reference value: 0.39625 ug/ml); assay type: ADME, organism-based; conditions: in vivo, dose 3 µg/ml
Acinetobacter baumannii [14] = test: Hormesis activity against overnight-compound treated Acinetobacter baumannii assessed as increase in antibiotic MIC by measuring chloramphenicol MIC at 3 ug/ml incubated for 12 hrs by OD600 based analysis (reference value: 6.25 ug/ml); assay type: ADME, organism-based; conditions: in vivo, dose 3 µg/ml
Enterobacter cloacae [15] = test: Hormesis activity against Enterobacter cloacae assessed as increase in antibiotic MIC by measuring ciprofloxacin MIC at 3 ug/ml incubated for 12 hrs by OD600 based analysis (reference value: 0.0390625 ug/ml); assay type: ADME, organism-based; conditions: in vivo, dose 3 µg/ml
Acinetobacter baumannii [16] = test: Hormesis activity against overnight-compound treated Acinetobacter baumannii assessed as increase in antibiotic MIC by measuring ciprofloxacin MIC at 3 ug/ml incubated for 12 hrs by OD600 based analysis (reference value: 0.3125 ug/ml); assay type: ADME, organism-based; conditions: in vivo, dose 3 µg/ml
Enterobacter cloacae [17] = test: Hormesis activity against overnight compound-treated Enterobacter cloacae assessed as increase in antibiotic MIC by measuring azithromycin MIC at 3 ug/ml incubated for 12 hrs by OD600 based analysis (reference value: 6.25 ug/ml); assay type: ADME, organism-based; conditions: in vivo, dose 3 µg/ml
Klebsiella pneumoniae [18] = test: Hormesis activity against Klebsiella pneumoniae assessed as increase in antibiotic MIC by measuring azithromycin MIC at 3 ug/ml incubated for 12 hrs by OD600 based analysis (reference value: 1.5625 ug/ml); assay type: ADME, organism-based; conditions: in vivo, dose 3 µg/ml
Klebsiella pneumoniae [19] = test: Hormesis activity against overnight compound-treated Klebsiella pneumoniae deficient in KmrA gene expression assessed as increase in antibiotic MIC by measuring rifampicin MIC at 3 ug/ml incubated for 12 hrs by OD600 based analysis (reference value: 25 ug/ml); assay type: ADME, organism-based; conditions: in vivo, dose 3 µg/ml
Acinetobacter baumannii [20] = test: Hormesis activity against Acinetobacter baumannii assessed as promotion of bacterial growth at 3 to 50 ug/ml measured for 24 hrs in presence of 80 to 120 ug/ml tetracycline by OD600 based analysis; assay type: organism-based; conditions: in vivo, dose 3-50 µg/ml
Klebsiella pneumoniae [21] = test: Hormesis activity against Klebsiella pneumoniae deficient in KmrA gene expression assessed as increase in antibiotic MIC by measuring azithromycin MIC at 3 ug/ml incubated for 12 hrs by OD600 based analysis (reference value: 0.78125 ug/ml); assay type: ADME, organism-based; conditions: in vivo, dose 3 µg/ml
Klebsiella pneumoniae [22] = test: Hormesis activity against overnight compound-treated Klebsiella pneumoniae assessed as increase in antibiotic MIC by measuring atreonamMIC at 3 ug/ml incubated for 12 hrs by OD600 based analysis (reference value: 1.5625 ug/ml); assay type: ADME, organism-based; conditions: in vivo, dose 3 µg/ml
Klebsiella pneumoniae [23] = test: Hormesis activity against Klebsiella pneumonia assessed as promotion of bacterial growth by measuring increase in final OD600 at 3 ug/ml measured for 24 hrs in presence of 2 ug/ml tetracycline by OD600 based analysis; assay type: organism-based; conditions: in vivo, at 3 µg/mL
Enterobacter cloacae [24] = test: Hormesis activity against Enterobacter cloacae assessed as increase in antibiotic MIC by measuring hygromycinMIC at 3 ug/ml incubated for 12 hrs by OD600 based analysis (reference value: 25 ug/ml); assay type: ADME, organism-based; conditions: in vivo, dose 3 µg/ml
Acinetobacter baumannii [25] = test: Hormesis activity against Acinetobacter baumannii assessed as increase in antibiotic MIC by measuring streptomycin MIC at 3 ug/ml incubated for 12 hrs by OD600 based analysis (reference value: 400 ug/ml); assay type: ADME, organism-based; conditions: in vivo, dose 3 µg/ml
Klebsiella pneumoniae [26] = test: Hormesis activity against Klebsiella pneumonia assessed as inhibition of bacterial growth at 25 to 50 ug/ml measured for 24 hrs in presence of 2 ug/ml tetracycline by OD600 based analysis; assay type: functional, organism-based; conditions: dose 25-50 µg/ml
Klebsiella pneumoniae [27] = test: Hormesis activity against overnight compound-treated Klebsiella pneumoniae deficient in KmrA gene expression assessed as increase in antibiotic MIC by measuring cefotaxime MIC at 3 ug/ml incubated for 12 hrs by OD600 based analysis (reference value: 0.39625 ug/ml); assay type: ADME, organism-based; conditions: in vivo, dose 3 µg/ml
Acinetobacter baumannii [28] = test: Hormesis activity against overnight-compound treated Acinetobacter baumannii assessed as increase in antibiotic MIC by measuring ampicillin MIC at 3 ug/ml incubated for 12 hrs by OD600 based analysis (reference value: 100 ug/ml); assay type: ADME, organism-based; conditions: in vivo, dose 3 µg/ml

MIC (Klebsiella pneumoniae [1]): 6.25 µg/mL
MIC (Acinetobacter baumannii [2]): 3.125 µg/mL
MIC (Acinetobacter baumannii [5]): 6.25 µg/mL
MIC (Klebsiella pneumoniae [6]): 12.5 µg/mL
MIC (Acinetobacter baumannii [7]): 0.625 µg/mL
MIC (Acinetobacter baumannii [8]): 200 µg/mL
MIC (Enterobacter cloacae [9]): 25 µg/mL
MIC (Klebsiella pneumoniae [10]): 6 µg/mL
MIC (Klebsiella pneumoniae [11]): 0.3962 µg/mL
MIC (Acinetobacter baumannii [12]): 250 µg/mL
MIC (Klebsiella pneumoniae [13]): 0.3962 µg/mL
MIC (Acinetobacter baumannii [14]): 6.25 µg/mL
MIC (Enterobacter cloacae [15]): 0.07812 µg/mL
MIC (Acinetobacter baumannii [16]): 0.625 µg/mL
MIC (Enterobacter cloacae [17]): 6.25 µg/mL
MIC (Klebsiella pneumoniae [18]): 3.125 µg/mL
MIC (Klebsiella pneumoniae [19]): 25 µg/mL
MIC (Klebsiella pneumoniae [21]): 0.7812 µg/mL
MIC (Klebsiella pneumoniae [22]): 1.5625 µg/mL
Activity (Klebsiella pneumoniae [23]): 23%
MIC (Enterobacter cloacae [24]): 25 µg/mL
MIC (Acinetobacter baumannii [25]): 400 µg/mL
MIC (Klebsiella pneumoniae [27]): 0.3962 µg/mL
MIC (Acinetobacter baumannii [28]): 200 µg/mL
SMILES: COc1ccc2cc3[n+](cc2c1OC)CCc1cc2c(cc1-3)OCO2 [BERBERINE]
Activity (Klebsiella pneumoniae [3]): Non-Toxic
Activity (Klebsiella pneumoniae [4]): Toxic
Activity (Acinetobacter baumannii [20]): Toxic
Activity (Klebsiella pneumoniae [26]): Active
